Data from patent publication US10300065B2, “Method of treating or prevention of atherothrombotic events in patients with history of myocardial infarction” (ASTRAZENECA AB, priority 2015, dated 2019).
Like-named read-outs stand apart in the source and are kept apart here.

Legend:
platelets = assay: Light transmittance aggregometry (LTA; ADP 20 uM), platelet function substudy; assay type: cell-based, human; conditions: for Emax: Homo sapiens, Platelet, mean (SD)
Method: The pharmacokinetics (PK) and pharmacodynamics of the 60 mg bid dose had not previously been studied. […] 180 patients who had received >4 weeks of study medication had blood sampling in the morning pre-maintenance dose and again 2 h post-dose. All patients were receiving aspirin. […] Well-known VerifyNow® P2Y12 assay and light transmittance aggregometry (LTA; ADP 20 uM) were performed. Groups were compared using Kruskal-Wallis test with significance attached to P<0.01 to allow for multiple group comparisons.

[1] = test system: patients with a history of myocardial infarction; assay: PEGASUS-TIMI 54 analysis by time from P2Y12 inhibitor withdrawal to randomization; conditions: for absolute reduction in the risk of a subsequent atherothrombotic event / reduction in the risk of developing a subsequent atherothrombotic event: 60 mg and 90 mg pooled; for All-cause mortality, HR / Cor. heart dis. death, HR / Fatal bleeding, HR / Intracranial bleeding, HR / Myocardial infarction, HR / Stroke, HR / TIMI Major Bleeding, HR / TIMI Major or Minor Bleeding, HR / All-cause mortality, (%) / Cor. heart dis. death, (%) / Fatal bleeding, (%) / Intracranial bleeding, (%) / Myocardial infarction, (%) / Stroke, (%) / TIMI Major Bleeding, (%) / TIMI Major or Minor Bleeding, (%): at 3 years
Text: Patients in PEGASUS-TIMI 54 were further categorized by time from last P2Y12 inhibitor (days: ≤30 days, 31-360, >360).

[2] = between 31 days and one year following withdrawal
[3] = within 30 days following withdrawal of dual antiplatelet therapy
[4] = >1 year from P2Y12 inhibitor withdrawal, ticagrelor 60 mg bid vs. placebo
[5] = >1 year from P2Y12 inhibitor withdrawal, ticagrelor 60 mg bid
[6] = >1 year from P2Y12 inhibitor withdrawal, ticagrelor 90 mg bid vs. placebo
[7] = >1 year from P2Y12 inhibitor withdrawal, ticagrelor 90 mg bid
[8] = >1 year from P2Y12 inhibitor withdrawal, ticagrelor pooled vs. placebo
[9] = >1 year from P2Y12 inhibitor withdrawal, ticagrelor pooled
[10] = >30 days to ≤1 year from P2Y12 inhibitor withdrawal, ticagrelor 60 mg bid vs. placebo
[11] = >30 days to ≤1 year from P2Y12 inhibitor withdrawal, ticagrelor 60 mg bid
[12] = >30 days to ≤1 year from P2Y12 inhibitor withdrawal, ticagrelor 90 mg bid vs. placebo

In the case of `CCCSc1nc(N[C@@H]2C[C@H]2c2ccc(F)c(F)c2)c2nnn([C@@H]3C[C@H](OCCO)[C@@H](O)[C@H]3O)c2n1` [Ticagrelor, (1S,2S,3R,5S)-3-[7-{[(1R,2S)-2-(3,4-difluorophenyl)cyclopropyl]amino}-5-(propylthio)-3H-[1,2,3]-triazolo[4,5-d]pyrimidin-3-yl]-5-(2-hydroxyethoxy)cyclopentane-1,2-diol], the “Platelet reactivity pre- and post-dose as measured by LTA” value (platelets; 90 mg vs 60 mg) is reported as “numerically but not significantly lower with 90 mg than 60 mg”, the Emax (platelets; 2 h, ticagrelor 60 mg bid, 2 h post dose, read-out: LTA Max response (maximum % aggregation response) Post dose) is reported as 33% and the Emax (platelets; 2 h, ticagrelor 90 mg bid, 2 h post dose, read-out: LTA Max response (maximum % aggregation response) Post dose) is reported as 29%. For the same molecule, the Emax (platelets; ticagrelor 60 mg bid, pre dose, read-out: LTA Max response (maximum % aggregation response) Pre dose) was 39%, the Emax (platelets; ticagrelor 90 mg bid, pre dose, read-out: LTA Max response (maximum % aggregation response) Pre dose) was 36% and the “absolute reduction in the risk of a subsequent atherothrombotic event” value [1, 2] was 1.1%. For the same molecule, the “reduction in the risk of developing a subsequent atherothrombotic event” value [1, 2] was 14%, the “absolute reduction in the risk of a subsequent atherothrombotic event” value [1, 3] was 2.2% and the “reduction in the risk of developing a subsequent atherothrombotic event” value [1, 3] was 27%. For the same molecule, the “All-cause mortality, HR” value [1, 4] was 1.34, the “Cor. heart dis. death, HR” value [1, 4] was 0.96 and the “Fatal bleeding, HR” value [1, 4] was 1.11. For the same molecule, the “Intracranial bleeding, HR” value [1, 4] was 1.56, the “Myocardial infarction, HR” value [1, 4] was 0.95 and the “Stroke, HR” value [1, 4] was 0.95. The “TIMI Major Bleeding, HR” value [1, 4] was 2.1, the “TIMI Major or Minor Bleeding, HR” value [1, 4] was 2.11 and the “All-cause mortality, (%)” value [1, 5] was “(4.6) %”. For the same molecule, the “Cor. heart dis. death, (%)” value [1, 5] was “(1.2) %”, the “Fatal bleeding, (%)” value [1, 5] was “(0.1) %” and the “Intracranial bleeding, (%)” value [1, 5] was “(0.6) %”. For the same molecule, the “Myocardial infarction, (%)” value [1, 5] was “(4.1) %”, the “Stroke, (%)” value [1, 5] was “(1.2) %” and the “TIMI Major Bleeding, (%)” value [1, 5] was “(1.9) %”. For the same molecule, the “TIMI Major or Minor Bleeding, (%)” value [1, 5] was “(2.3) %”, the “All-cause mortality, HR” value [1, 6] was 1.31 and the “Cor. heart dis. death, HR” value [1, 6] was 0.77. The “Intracranial bleeding, HR” value [1, 6] was 1.42, the “Myocardial infarction, HR” value [1, 6] was 0.84 and the “Stroke, HR” value [1, 6] was 1.13. The “TIMI Major Bleeding, HR” value [1, 6] was 3.28, the “TIMI Major or Minor Bleeding, HR” value [1, 6] was 3.82 and the “All-cause mortality, (%)” value [1, 7] was “(4.7) %”. For the same molecule, the “Cor. heart dis. death, (%)” value [1, 7] was “(1.1) %”, the “Fatal bleeding, (%)” value [1, 7] was “(0) %” and the “Intracranial bleeding, (%)” value [1, 7] was “(0.5) %”. The “Myocardial infarction, (%)” value [1, 7] was “(3.6) %”, the “Stroke, (%)” value [1, 7] was “(1.5) %” and the “TIMI Major Bleeding, (%)” value [1, 7] was “(3) %”. For the same molecule, the “TIMI Major or Minor Bleeding, (%)” value [1, 7] was “(4.4) %”, the “All-cause mortality, HR” value [1, 8] was 1.32 and the “Cor. heart dis. death, HR” value [1, 8] was 0.86. The “Fatal bleeding, HR” value [1, 8] was 0.57, the “Intracranial bleeding, HR” value [1, 8] was 1.48 and the “Myocardial infarction, HR” value [1, 8] was 0.9. The “Stroke, HR” value [1, 8] was 1.04, the “TIMI Major Bleeding, HR” value [1, 8] was 2.67 and the “TIMI Major or Minor Bleeding, HR” value [1, 8] was 2.94. The “All-cause mortality, (%)” value [1, 9] was “(4.6) %”, the “Cor. heart dis. death, (%)” value [1, 9] was “(1.2) %” and the “Fatal bleeding, (%)” value [1, 9] was “(0) %”. For the same molecule, the “Intracranial bleeding, (%)” value [1, 9] was “(0.6) %”, the “Myocardial infarction, (%)” value [1, 9] was “(3.9) %” and the “Stroke, (%)” value [1, 9] was “(1.3) %”. For the same molecule, the “TIMI Major Bleeding, (%)” value [1, 9] was “(2.4) %”, the “TIMI Major or Minor Bleeding, (%)” value [1, 9] was “(3.5) %” and the “All-cause mortality, HR” value [1, 10] was 0.76. The “Cor. heart dis. death, HR” value [1, 10] was 0.70, the “Fatal bleeding, HR” value [1, 10] was 0.87 and the “Intracranial bleeding, HR” value [1, 10] was 1.97. The “Myocardial infarction, HR” value [1, 10] was 0.88, the “Stroke, HR” value [1, 10] was 0.82 and the “TIMI Major Bleeding, HR” value [1, 10] was 2.94. The “TIMI Major or Minor Bleeding, HR” value [1, 10] was 3.07, the “All-cause mortality, (%)” value [1, 11] was “(3.8) %” and the “Cor. heart dis. death, (%)” value [1, 11] was “(1.4) %”. For the same molecule, the “Fatal bleeding, (%)” value [1, 11] was “(0.3) %”, the “Intracranial bleeding, (%)” value [1, 11] was “(0.6) %” and the “Myocardial infarction, (%)” value [1, 11] was “(4.6) %”. For the same molecule, the “Stroke, (%)” value [1, 11] was “(1.4) %”, the “TIMI Major Bleeding, (%)” value [1, 11] was “(2.7) %” and the “TIMI Major or Minor Bleeding, (%)” value [1, 11] was “(3.8) %”. For the same molecule, the “All-cause mortality, HR” value [1, 12] was 1.01, the “Cor. heart dis. death, HR” value [1, 12] was 0.71 and the “Fatal bleeding, HR” value [1, 12] was 0.24. The “Intracranial bleeding, HR” value [1, 12] was 1.63, the “Myocardial infarction, HR” value [1, 12] was 0.82 and the “Stroke, HR” value [1, 12] was 1.02. The “TIMI Major Bleeding, HR” value [1, 12] was 2.85, the “TIMI Major or Minor Bleeding, HR” value [1, 12] was 3.17 and the “All-cause mortality, (%)” value ([1]; >30 days to ≤1 year from P2Y12 inhibitor withdrawal, ticagrelor 90 mg bid) was “(4.8) %”.
